In brackets after ≈: the same amount, converted by molar mass. Where two headings read alike, the source gives them in different places.
Legend:
[1] = test system: Salmonella typhimurium; test: MIC aerobic screen, H-59 synthetic agar; conditions: Salmonella enterica, read-out: Minimum Inhibitory Concentration
[2] = test system: gram-positive and gram-negative bacteria, yeasts, fungi, acholeplasma, and the protozoan Trichomonas vaginalis; test: biological activity, general statement; conditions: A form versus B form
[3] = test system: Trichomonas vaginalis; test: MIC against Trichomonas vaginalis; format: cell-based; conditions: Table VII, strain 8560, anaerobic, 37° C., 40 hours, read-out: Minimum Inhibitory Concentration
[4] = test system: Peptostreptococcus anaerobius; test: MIC anaerobic screen; format: cell-based; conditions: Table IV, strain 11,263, read-out: Minimum Inhibitory Concentration
[5] = test system: Pseudomonas aeruginosa; test: MIC aerobic screen, H-59 synthetic agar
[6] = test system: Staphylococcus aureus; test: MIC aerobic screen, BA-2 agar; conditions: Staphylococcus aureus
[7] = test system: Escherichia coli; test: MIC aerobic screen, BA-2 agar; conditions: Escherichia coli
[8] = test system: Clostridium perfringens; test: microbe, parasite or virus in culture; format: cell-based; conditions: read-out: Minimum Inhibitory Concentration
[9] = solubility; format: physicochemical
[10] = test system: Serratia marcescens; test: MIC aerobic screen, BA-2 agar; conditions: Serratia marcescens
[11] = test system: Acinetobacter calcoaceticus; test: MIC aerobic screen, BA-2 agar; conditions: Acinetobacter calcoaceticus, strain 8333
[12] = test system: Klebsiella aerogenes; test: MIC aerobic screen, H-59 synthetic agar; conditions: read-out: Minimum Inhibitory Concentration
[13] = test system: Hemophilus vaginalis; test: MIC anaerobic screen; format: cell-based; conditions: Table IV
[14] = test system: T. rubrum; test: MIC against dermatophytes; format: cell-based; conditions: Trichophyton rubrum; Table VI; strain 9199; 26° C., 48 hours; read-out: Minimum Inhibitory Concentration
[15] = test system: Klebsiella aerogenes; test: MIC aerobic screen, BA-2 agar; conditions: Klebsiella aerogenes, strain 10,436
[16] = test system: Bifidobacterium dentium; test: MIC anaerobic screen; format: cell-based; conditions: Table IV, strain 11,260, read-out: Minimum Inhibitory Concentration
[17] = test system: Enterobacter cloacae; test: MIC aerobic screen, BA-2 agar; conditions: Enterobacter cloacae, strain 10,459
[18] = test system: Enterobacter cloacae; test: MIC aerobic screen, H-59 synthetic agar; conditions: read-out: Minimum Inhibitory Concentration
[19] = test system: Klebsiella pneumoniae; test: MIC aerobic screen, BA-2 agar
[20] = test system: Candida albicans; test: MIC against Candida albicans (broth tube dilution); format: cell-based; conditions: Table V, strain 5314, read-out: Minimum Inhibitory Concentration
[21] = test system: Escherichia coli; test: MIC aerobic screen, H-59 synthetic agar
[22] = test system: Peptococcus variabilis; test: MIC anaerobic screen; format: cell-based; conditions: Table IV, strain 11,264, read-out: Minimum Inhibitory Concentration
[23] = test system: Pseudomonas aeruginosa; test: MIC aerobic screen, BA-2 agar; conditions: Pseudomonas aeruginosa
[24] = test system: Salmonella typhimurium; test: MIC aerobic screen, BA-2 agar
[25] = test system: Shigella sonnei; test: MIC aerobic screen, H-59 synthetic agar; format: cell-based; conditions: Table III, H-59 agar, strain 8449, read-out: Minimum Inhibitory Concentration
Description: (A) Using H-59 Synthetic Agar

[26] = test system: Shigella sonnei; test: MIC aerobic screen, BA-2 agar; format: cell-based; conditions: strain 8449
[27] = test system: T. mentagrophytes; test: MIC against dermatophytes; format: cell-based; conditions: Trichophyton mentagrophytes; Table VI; strain 2637; 26° C., 48 hours; read-out: Minimum Inhibitory Concentration
[28] = test system: Mycoplasma mycoides; test: microbe, parasite or virus in culture; format: cell-based; conditions: 48 h
[29] = test system: Serratia marcescens; test: MIC aerobic screen, H-59 synthetic agar
[30] = read-out: Minimum Inhibitory Concentration, Table I, BA-2 agar
[31] = read-out: Minimum Inhibitory Concentration, Table II, additional tests

CC1(O)CC(C(N)=O)N=C1c1ncccc1O (stereo not drawn) [EM4940A, 2,4-trans-3,4-dihydro-4-hydroxy-5-(3-hydroxy-2-pyridinyl)-4-methyl-2H-pyrrole-2-carboxamide]
MIC [1]: 50 µg/mL (≈ 213 µM) | biological activity of A form relative to B form [2]: more active than the B form | MIC [3]: 12.5 µg/mL (≈ 53.1 µM) | MIC [4]: 50 µg/mL (≈ 213 µM) | MIC ([5]; read-out: Minimum Inhibitory Concentration, Table III, H-59 agar, strain 8754): > 100 µg/mL | MIC ([5]; read-out: Minimum Inhibitory Concentration, Table III, H-59 agar, strain 9330): 50 µg/mL (≈ 213 µM) | MIC ([5]; read-out: Minimum Inhibitory Concentration, Table III, H-59 agar, strain 9545): 25 µg/mL (≈ 106 µM) | MIC ([6]; read-out: Minimum Inhibitory Concentration, Table I, BA-2 agar, strain 2400): > 100 µg/mL | MIC ([6]; read-out: Minimum Inhibitory Concentration, Table I, BA-2 agar, strain 10,165): 50 µg/mL (≈ 213 µM) | MIC ([6]; read-out: Minimum Inhibitory Concentration, Table I, BA-2 agar, strain 11,239): > 100 µg/mL | MIC ([6]; read-out: Minimum Inhibitory Concentration, Table II, additional tests, strain 2400): > 200 µg/mL | MIC ([6]; read-out: Minimum Inhibitory Concentration, Table II, additional tests, strain 2661): > 200 µg/mL | MIC ([6]; read-out: Minimum Inhibitory Concentration, Table II, additional tests, strain 10,165): 100 µg/mL (≈ 425 µM) | MIC ([6]; read-out: Minimum Inhibitory Concentration, Table II, additional tests, strain 11,239): 50 µg/mL (≈ 213 µM) | MIC ([7]; read-out: Minimum Inhibitory Concentration, Table I, BA-2 agar, strain 10,404): 100 µg/mL (≈ 425 µM) | MIC ([7]; read-out: Minimum Inhibitory Concentration, Table I, BA-2 agar, strain 10,857): 50 µg/mL (≈ 213 µM) | MIC ([7]; read-out: Minimum Inhibitory Concentration, Table I, BA-2 agar, strain 10,896): 25 µg/mL (≈ 106 µM) | MIC ([7]; read-out: Minimum Inhibitory Concentration, Table II, additional tests, strain 10,404): 50 µg/mL (≈ 213 µM) | MIC ([7]; read-out: Minimum Inhibitory Concentration, Table II, additional tests, strain 10,857): 50 µg/mL (≈ 213 µM) | MIC [8]: 50 µg/mL (≈ 213 µM) | solubility ([9]; hexane): Insoluble | solubility ([9]; methanol, ethanol, ethyl acetate, acetone and chloroform): soluble | solubility ([9]; water): Insoluble | MIC ([10]; read-out: Minimum Inhibitory Concentration, Table I, BA-2 agar, strain 1111): > 100 µg/mL | MIC ([10]; read-out: Minimum Inhibitory Concentration, Table I, BA-2 agar, strain 9782): 100 µg/mL (≈ 425 µM) | MIC ([10]; read-out: Minimum Inhibitory Concentration, Table II, additional tests, strain 9782): 50 µg/mL (≈ 213 µM) | MIC ([10]; read-out: Minimum Inhibitory Concentration, Table II, additional tests, strain 11,111): 100 µg/mL (≈ 425 µM) | MIC [11, 30]: 50 µg/mL (≈ 213 µM) | MIC [11, 31]: 100 µg/mL (≈ 425 µM) | MIC [12]: 50 µg/mL (≈ 213 µM) | MIC ([13]; strain 8568, read-out: Minimum Inhibitory Concentration): 100 µg/mL (≈ 425 µM) | Minimum Inhibitory Concentration ([13]; strain 9640): 100.00 µg/mL | MIC [14]: 50 µg/mL (≈ 213 µM) | MIC [15, 30]: 100 µg/mL (≈ 425 µM) | MIC [15, 31]: 50 µg/mL (≈ 213 µM) | MIC [16]: > 100 µg/mL | MIC [17, 30]: > 100 µg/mL | MIC [17, 31]: 50 µg/mL (≈ 213 µM) | MIC [18]: 100 µg/mL (≈ 425 µM) | MIC ([19]; Klebsiella pneumoniae, read-out: Minimum Inhibitory Concentration): 50 µg/mL (≈ 213 µM) | Minimum Inhibitory Concentration ([19]; Table II, additional tests, strain 11,066): 50 µg/mL | MIC ([20]; Candida albicans, Medium: F4): > 100 µg/mL | MIC ([20]; Medium: Yeast Nitrogen Base + Glucose): > 100 µg/mL | MIC ([21]; read-out: Minimum Inhibitory Concentration, Table III, H-59 agar, strain 10,404): 50 µg/mL (≈ 213 µM) | MIC ([21]; read-out: Minimum Inhibitory Concentration, Table III, H-59 agar, strain 10,857): 25 µg/mL (≈ 106 µM) | MIC [22]: 50 µg/mL (≈ 213 µM) | MIC ([23]; read-out: Minimum Inhibitory Concentration, Table I, BA-2 agar, strain 8754): > 100 µg/mL | MIC ([23]; read-out: Minimum Inhibitory Concentration, Table I, BA-2 agar, strain 9330): 50 µg/mL (≈ 213 µM) | MIC ([23]; read-out: Minimum Inhibitory Concentration, Table I, BA-2 agar, strain 9545): 25 µg/mL (≈ 106 µM) | MIC ([23]; read-out: Minimum Inhibitory Concentration, Table II, additional tests, strain 8754): 100 µg/mL (≈ 425 µM) | MIC ([23]; read-out: Minimum Inhibitory Concentration, Table II, additional tests, strain 9330): > 200 µg/mL | MIC ([23]; read-out: Minimum Inhibitory Concentration, Table II, additional tests, strain 9545): 12.5 µg/mL (≈ 53.1 µM) | MIC ([24]; Salmonella enterica, TYPHIMURIUM, read-out: Minimum Inhibitory Concentration): 50 µg/mL (≈ 213 µM) | Minimum Inhibitory Concentration ([24]; Table II, additional tests, strain 9201): 50 µg/mL | MIC [25]: 50 µg/mL (≈ 213 µM) | MIC ([26]; Shigella sonnei, Table I, BA-2 agar, read-out: Minimum Inhibitory Concentration): 50 µg/mL (≈ 213 µM) | Minimum Inhibitory Concentration ([26]; Table II, additional tests): 50 µg/mL | MIC [27]: > 100 µg/mL | MIC [28]: > 100 µg/mL | MIC ([29]; Serratia marcescens, read-out: Minimum Inhibitory Concentration): 100 µg/mL (≈ 425 µM) | Minimum Inhibitory Concentration ([29]; Table III, H-59 agar, strain 11,111): 100.0 µg/mL

Reference: US4339535A, “Process for preparing antibiotic EM 4940” (E. R. Squibb & Sons, Inc., priority 1980, dated 1982)
